Consider two molecules from article PMC11219871, “Epigenetic-based differentiation therapy for Acute Myeloid Leukemia” (Nature Communications, 2024).

One series deals with T1, G9a (Homo sapiens, UniProt Q96KQ7).
T1 sequence (Q96KQ7 1-1210): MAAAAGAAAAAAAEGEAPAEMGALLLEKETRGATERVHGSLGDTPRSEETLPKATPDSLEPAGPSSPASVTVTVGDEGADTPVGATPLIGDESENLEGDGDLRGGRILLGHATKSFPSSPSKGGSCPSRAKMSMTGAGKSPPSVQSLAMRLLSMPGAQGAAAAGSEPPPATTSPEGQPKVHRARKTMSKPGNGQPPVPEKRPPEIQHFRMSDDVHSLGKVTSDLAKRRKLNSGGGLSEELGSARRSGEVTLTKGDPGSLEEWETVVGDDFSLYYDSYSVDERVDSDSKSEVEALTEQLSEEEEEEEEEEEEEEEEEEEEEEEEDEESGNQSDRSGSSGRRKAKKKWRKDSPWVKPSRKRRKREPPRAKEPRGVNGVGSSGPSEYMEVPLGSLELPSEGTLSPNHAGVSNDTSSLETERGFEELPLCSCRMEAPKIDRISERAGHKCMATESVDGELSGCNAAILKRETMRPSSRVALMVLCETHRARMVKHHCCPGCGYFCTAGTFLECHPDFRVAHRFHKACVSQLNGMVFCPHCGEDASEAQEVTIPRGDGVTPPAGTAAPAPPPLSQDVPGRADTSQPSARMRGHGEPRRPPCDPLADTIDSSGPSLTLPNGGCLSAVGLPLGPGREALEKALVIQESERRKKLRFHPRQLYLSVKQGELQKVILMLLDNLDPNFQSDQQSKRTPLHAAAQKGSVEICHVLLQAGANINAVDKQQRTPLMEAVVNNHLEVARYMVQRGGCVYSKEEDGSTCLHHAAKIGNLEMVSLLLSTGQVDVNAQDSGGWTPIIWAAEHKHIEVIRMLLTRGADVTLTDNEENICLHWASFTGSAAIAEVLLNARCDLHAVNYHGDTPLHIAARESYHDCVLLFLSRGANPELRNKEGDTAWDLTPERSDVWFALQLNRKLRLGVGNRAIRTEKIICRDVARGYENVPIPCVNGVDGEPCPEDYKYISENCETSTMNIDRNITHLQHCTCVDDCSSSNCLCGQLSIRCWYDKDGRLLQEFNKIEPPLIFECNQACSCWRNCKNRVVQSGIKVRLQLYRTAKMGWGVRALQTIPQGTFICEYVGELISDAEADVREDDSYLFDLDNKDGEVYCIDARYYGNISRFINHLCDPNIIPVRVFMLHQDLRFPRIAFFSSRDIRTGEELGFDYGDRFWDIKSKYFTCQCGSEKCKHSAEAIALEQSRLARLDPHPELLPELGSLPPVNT
Kind of series: Epigenetic panel (BPS Bioscience); G9a TR-FRET IC50. Type of series: biochemical. On the procedure: DNMT1 and G9a IC50 values were measured using time-resolved fluorescence energy transfer assays, as described previously[18],[25],[26].
Binding experiments were performed in duplicate at a concentration of 10 μM.

Series [1] deals with MOLM-13 i.v. in BALB/cA Rag2-/-γc-/- mice. The series is described as follows: Intravenous xenograft model (survival, CD11b in blood, body weight). The class given is in vivo, mouse. To be noted: for CD11b in blood samples: MOLM-13 i.v., 10 mg/kg i.p.; for CD11b (%): blood samples of mice engrafted intravenously with MOLM-13 cells, individual mice.
Series [2] in a line: Liver microsomal stability. Type of series: in vitro ADME. The following applies: read-out: Liver Microsomal Stability Estimation T1/2. Here is the method:
This study was conducted at Wuxi (http://www.wuxi.com/). […] A 5-μL aliquot of stock solution of test compound (10 mM; 100% DMSO) was diluted in 495 μL of […] (final concentration of 100 μM, 99% MeOH). Then, 50 μL of this intermediate solution was diluted in 450 μL of 100 mM potassium phosphate buffer to a concentration of 10 μM (working solution, 9.9% MeOH). The β-nicotinamide adenine dinucleotide phosphate reduced form (NADPH) regenerating system also contained tetrasodium salt, NADPH•4Na (Sigma, Cat.# No.00616). Human liver microsomes were obtained from Corning (Cat.#452117), and C57 mouse liver microsomes from Xenotech (Cat.#M5000), at a final concentration of 0.5 mg protein/mL. A volume of 10 μL of working solution of test and control compounds (testosterone, diclofenac and propafenone) and 80 μL/well microsome solution were added to a 96-well plate and incubated for 10 min at 37 °C. The reaction was started by the addition of 10 μL of NADPH regenerating system and stopped by the addition of 300 μL of stop solution (acetonitrile at 4 °C, including 100 ng/mL tolbutamide and 100 ng/mL of labetalol as internal standard) at different incubation times (0, 5, 10, 20, 30, and 60 min). Then, the samples were shaken for 10 min and centrifuged at 1699 g for 20 min at 4 °C. An aliquot of supernatant (100 μL) was transferred from each well and mixed with 300 μL of ultra-pure water before submitting to LC-MS/MS analysis. Concentrations of test and control compounds were quantified by LC-MS/MS using a peak area ratio of analyte/internal standard, and the percent loss of the parent compound was calculated at each time point to determine the half-life (t1/2, min). Experiments were performed in duplicate.

Another series is described as follows: Kinetic solubility. The class given is physicochemical. To be noted: PBS buffer, aqueous buffer, kinetic from dmso stock, pH 7.4, PBS. Here is the method: This study was conducted at Wuxi (http://www.wuxi.com/). Stock solutions of test compounds (10 mM; 100% DMSO) and 490 μL of PBS buffer at pH = 7.4 were added in the lower chamber of Whatman’s Mini-Uniprep vials. After vortex mixing for ≥2 min, the vials were shaken at 800 rpm for 24 h and finally centrifuged at 1520 g for 20 min. The concentration of the filtrate was quantified by HPLC (calibration curve from 1.5624 μM to 200 μM). Amiodarone hydrochloride, carbamazepine and chloramphenicol were used as controls.

pIC50: −log10 of the molar value. ≈ marks a conversion by molar mass, not a printed value. Where “and” joins values, the source holds several entries; their conditions need not be identical. Equal entries are not always repeated. Where two headings read alike, the source gives them in different places.

As a reminder, the pIC50 is −log10 of the IC50, conventionally taken in molar units. For orientation: inhibition means the change of the read-out against control, counted positive when it falls. What is called solubility is the concentration that dissolves in the medium under given conditions. The low end stands for a poorly soluble substance, the high end for a readily soluble substance. At G9a, `COc1cc2nc(-c3ccc(C)o3)cc(NCC3CCN(c4ncc(C(=O)NO)cn4)CC3)c2cc1OC` [CM-444, 2-[4-[[[6,7-dimethoxy-2-(5-methyl-2-furyl)-4-quinolyl]amino]methyl]-1-piperidyl]pyrimidine-5-carbohydroxamic acid] showed a pIC50 below 5.00 and an inhibition at 10 µM of 0%. Moreover, in series [1], the “CD11b in blood samples” value is given as “significant induction of CD11b”; the “CD11b (%)” value was 49.5% and 13.9% and 12.3% and 14% and 28.6% and 15.1% and 19.3% and 15% and 42.6% and 31.9% and 18% and 12.6%. Besides, in series [2] (C57, mouse liver microsomes), the half-life at 1 µM is 18.4 min. The half-life at 1 µM in series [2] (human liver microsomes) is 28.8 min. The concentration in solution in “Kinetic solubility” (solubility at 24 h) was 118 µg/mL (≈ 227 µM).
As for `COc1cc2nc(-c3cc(C)oc3C)cc(NCC3CCN(c4ncc(C(=O)NO)cn4)CC3)c2cc1OC` [CM-1758, 2-[4-[[[2-(2,5-dimethyl-3-furyl)-6,7-dimethoxy-4-quinolyl]amino]methyl] -1-piperidyl]pyrimidine-5-carbohydroxamic acid], on G9a, the pIC50 is below 5.00 and testing at 10 µM gave an inhibition of 9%. Moreover, in series [1], the “CD11b in blood samples” value was “significant induction of CD11b”; the “CD11b (%)” value was 43.5% and 62.1% and 13.7% and 9.45% and 29.6% and 36.3% and 8.98% and 17.9% and 35.4% and 52.9% and 49.9%. Besides, the half-life at 1 µM in series [2] (C57, mouse liver microsomes) is 12.5 min. Further, the half-life at 1 µM in series [2] (human liver microsomes) was 37.9 min. Besides, the solubility at 24 h in the series “Kinetic solubility” is above 144 µg/mL.
